Key:
TBG = target: T1, TBG (Homo sapiens, UniProt P05543); assay: Displacement of 125I-T4 tracer from TBG:anti-TBG binding reagent (binding strength relative to T4); details: for binding to TBG (in words): I-125 labelled tracer
T1 construct: from tissue; host or cells: human serum (resin stripped)
T1 sequence (P05543 21-415): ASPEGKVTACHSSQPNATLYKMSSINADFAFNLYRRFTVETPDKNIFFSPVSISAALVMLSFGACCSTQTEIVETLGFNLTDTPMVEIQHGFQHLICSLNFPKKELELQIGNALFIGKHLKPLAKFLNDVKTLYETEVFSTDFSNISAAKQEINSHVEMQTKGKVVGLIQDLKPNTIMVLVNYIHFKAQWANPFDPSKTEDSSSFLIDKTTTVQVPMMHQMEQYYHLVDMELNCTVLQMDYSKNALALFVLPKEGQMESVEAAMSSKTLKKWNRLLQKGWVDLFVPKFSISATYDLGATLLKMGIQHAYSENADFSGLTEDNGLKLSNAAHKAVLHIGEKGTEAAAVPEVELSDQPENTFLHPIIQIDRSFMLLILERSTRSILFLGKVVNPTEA
Experimental: (§1) Method for estimation of T4.EDTA binding strength to TBG and prealbumin relative to that of T4
(§2) Pre-precipitated antiserum (binding reagent) to either TBG or prealbumin is incubated with a serum source of TBG or prealbumin, so that the T4 binding protein is isolated on the binding reagent. Tracer ^125I-T4 is added to the resulting complex and is thus purified. The displacement of the tracer ^125I―T4, by varying concentrations of T4 and T4.EDTA, from the TBG or prealbumin, can then be studied. The results can be used to estimate the differences in binding affinity between T4 and T4.EDTA for the two T4 binding proteins.
• 2.1 Preparation of ^125I-T4:TBG:anti-TBG binding reagent • 2.1.1. Binding reagent preparation • 15% Donkey anti-sheep) in phosphate • 2% TBG Antiserum) buffer + 0.05% BSA
Equal quantities of the above solutions are mixed and rotated overnight at 4° so that the final concentrations in the binding reagent are 7.5% donkey anti-sheep, and 1% TBG antiserum. Centrifugation at 900 rpm, decantation and resuspension in fresh buffer are carried out twice to wash the reagent.
1 ml of resin stripped human serum and 20 ml of the above binding reagents are mixed for 1 hour at room temperature. Centrifugation, decantation and resuspension in fresh buffer (phosphate + 0.05% BSA) are carried out twice.
Typically 10 ml ofTBG:anti-TBG binding reagents, 28 ml of phosphate buffer + 0.05% BSA, and 2 ml of ^125I―T4 tracer solution (0.1 µCi high specific activity T4 per ml in phosphate buffer + 0.05% BSA) are mixed for 1 hour at room temperature. […]
(§3) Thus the percentage bound of the tracer at different T4 and T4.EDTA concentrations, can be determined in the two systems.
(§4) Tracer percentage bound is plotted against T4 and T4.EDTA concentrations, and from these curves an estimate of the non-specific binding can be made. The data can then be re-calculated, using this blank correction, plotted, and the T4 and T4.EDTA concentrations corresponding to a range of tracer percentage bound values can be read off the curve. […]

[1] = Stability of the tracer compound in water / assay buffer; type: physicochemical; details: on dilution into the assay buffer / contact with water
[2] = tested on: Antisera (having low T4 cross reactivity); assay: Binding to antisera having low T4 cross reactivity, compared with T3
TBPA = target: T2, TBPA (Homo sapiens, UniProt P02766); assay: Displacement of 125I-T4 tracer from TBPA:anti-TBPA binding reagent (binding strength relative to T4); details: binding to TBPA (prealbumin), displacement of 125I-T4, 37°C
T2 construct: from tissue; host or cells: normal serum
Experimental: as §1, §2
This is prepared as for the anti-TBG binding reagent except that equal volumes of 30% donkey anti-rabbit second antibody and 4% TBPA antiserum solutions were mixed to give final concentrations of 15% donkey anti-rabbit, and 2% anti-TBPA. […]
as §3, §4

T4 antiserum = assay: Affinity constant with respect to T4 antiserum, relative to T4; type: binding

binding to TBG (in words) (TBG)	affinity constant as % of the affinity constant of T4 (TBG; binding to TBG, displacement of 125I-T4, 37°C)	affinity constant as % of the affinity constant of T4 (TBPA)	Compound	stability in water [1]	binding to Antisera compared with T3 [2]	affinity constant with respect to T4 antiserum as % of that of T4 (T4 antiserum)
binds appreciably to TBG			COC(=O)[C@H](Cc1cc(I)c(Oc2cc(I)c(O)c(I)c2)c(I)c1)NC(C)=O [N-Acetyl-thyroxine-methyl ester, N-acetyl-thyroxine-methyl ester, reference compound]	only gives useful assay results within hours of dilution into the assay buffer		
			O=C(O)CN(CCN(CC(=O)O)CC(=O)NC(Cc1cc(I)c(Oc2ccc(O)c(I)c2)c(I)c1)C(=O)O)CC(=O)O (centres unmarked) [T3.EDTA, 2-carboxy-6,9-dicarboxymethyl-1 3',5' di-iodo-4' (3"-iodo-4"-hydroxy)phenoxy phenyl 4-oxo-3,6,9-triazaundecan-11-oic acid.]		equal, or better, binding than T3 itself	
no significant tendency to bind to TBG	3.5%	2.7%	O=C(O)CN(CCN(CC(=O)O)CC(=O)NC(Cc1cc(I)c(Oc2cc(I)c(O)c(I)c2)c(I)c1)C(=O)O)CC(=O)O (centres unmarked) [T4.EDTA, 1-{3',5'-di-iodo-4' (3",5"-di-iodo-4"-Hydroxyphenoxy)phenyl} 2-carboxy-6,9-dicarboxymethyl-4-oxo-3,6,9,-triazaundecan-11-oic acid]	stable in water		90.4%

Source: patent EP0073865B1, “Derivatives of iodothyronine compounds and their use in an assay for the free iodothyronine compounds” (AMERSHAM INTERNATIONAL plc, priority 1981, dated 1983)
